Results taken from US20220041623A1, “INDOLE MACROCYCLIC DERIVATIVE, PREPARATION METHOD THEREOF AND APPLICATION THEREOF IN MEDICINE” (JIANGSU HENGRUI MEDICINE CO., LTD., priority 2018, published 2022).
Like-named read-outs stand apart in the source and are kept apart here.

Experiments:
AMO-1 cells = test: Cell proliferation experiment (intracellular ATP, CellTiter-Glo), AMO-1; assay type: cell-based; settings: Homo sapiens, AMO1, 72 h, read-out: AMO-1 IC50
Procedure: (§1) The following method evaluates the inhibition effect of the compound of the present invention on the proliferation of AMO-1 and MV-4-11 cells according to IC50 value by detecting intracellular ATP content. The experimental method is briefly described as follows.
1. AMO-1, human bone marrow plasmacytoma (Nanjing Cobioer Biosciences Co., Ltd., CBP60242)
(§2) AMO-1 cells were cultured in RPMI1640 medium (containing 20% FBS), and MV-4-11 cells were cultured in IMDM medium (containing 10% FBS). The cells were passaged for 2 to 3 times a week, with a passage ratio of 1:4 or 1:6. During the passage, the cells were transferred to a centrifuge tube and centrifuged at 1200 rpm for 3 minutes. The supernatant was discarded, and fresh medium was added to resuspend the cells. […] 100 μL of complete medium was added to the periphery of the 96-well plate. The plate was incubated in an incubator for 24 hours (37° C., 5% CO2).
(§3) The test sample was diluted to 20 mM with DMSO, and then diluted to 9 concentrations by diluting in 4-fold gradient. Blank and control wells were set. 5 μL of the test compound solution formulated as gradient concentration was added to 95 μL of fresh medium. 10 µL of the above drug-containing medium solution was added to the plate. The plate was incubated in an incubator for 3 days (37° C., 5% CO2). In the 96-well cell culture plate, 50 μL of CellTiter-Glo reagent was added to each well, and the plate was left to stand in the dark at room temperature for 5 to 10 minutes. The chemiluminescence signal value was read in PHERAstar, and the data was processed by GraphPad software.

MV-4-11 cells = test: Cell proliferation experiment (intracellular ATP, CellTiter-Glo), MV-4-11; assay type: cell-based; settings: Homo sapiens, MV4-11, 72 h, read-out: MV-4-11 IC50
Procedure: as §1, §2, §3

MCL-1 protein = target: T1, MCL-1 protein (Homo sapiens, UniProt Q07820); test: MCL-1 protein binding experiment (HTRF, MCL-1/Bim); settings: for inhibition at up to 10 µM / Maximum inhibition rate (%): HTRF MCL-1/Bim binding, initial concentration 10 μM; for inhibition at up to 10 µM: read-out: Maximum inhibition rate (%); for Ki: HTRF, 0.1 nM His-MCL-1, 2.5 nM bio-Bim, room temperature
T1 construct: Bim peptide bought from R&D, 3526/1 NA
T1 sequence (Q07820 171-327): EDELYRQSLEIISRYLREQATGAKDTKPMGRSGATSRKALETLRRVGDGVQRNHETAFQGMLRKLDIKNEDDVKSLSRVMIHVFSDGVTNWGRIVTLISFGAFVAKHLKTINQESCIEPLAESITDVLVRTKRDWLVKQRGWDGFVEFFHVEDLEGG
Procedure: The following method was used to determine the binding ability of the compound of the present invention to MCL-1 protein. The experimental method is briefly described as follows.
MCL-1 inhibitors can bind to MCL-1 protein to prevent the binding of MCL-1 to Bim protein. The experiment evaluates the binding ability of MCL-1 inhibitor to MCL-1 protein by detecting the binding of MCL-1 to Bim protein through HTRF method, and the activity of the compound was evaluated according to the Ki value.
The mixture was incubated at room temperature for 2 hours, followed by the detection of fluorescence signals at 620 nm and 665 nm by PHERAstar. The data was processed by GraphPad software.

[1] = AMO-1 cells, incubated 3 days, CellTiter-Glo
[2] = MV-4-11 cells, incubated 3 days, CellTiter-Glo

Row | Structure (SMILES) | IC50 (AMO-1 cells; [1]) [nM] | IC50 (MV-4-11 cells; [2]) [nM] | inhibition at up to 10 µM (MCL-1 protein) [%] | Ki (MCL-1 protein) [nM] | IC50 (AMO-1 cells) [nM] | IC50 (MV-4-11 cells) [nM] | Maximum inhibition rate (%) (MCL-1 protein; 10 µM) | Maximum inhibition rate (%) (MCL-1 protein)
1 | Cc1c(C(=O)O)n2c3ccc(Cl)c(c13)-c1c(nn(C)c1C)CSCc1cc(n(C)n1)CSc1cc(c3ccccc3c1)OCCC2 (single isomer, unassigned) [Example 2-1, (Ra)-17-Chloro-5,13,14,22-tetramethyl-28-oxa-2,9-dithia-5,6,12,13,24-pentaazaheptacyclo[27.7.1.1^4,7.0^11,15.0^16,21.0^20,24.0^30,35]octatriaconta-1(37),4(38),6,11,14,16,18,20,22,29,31,33,35-tridecaene-23-carboxylic acid] | 76 | 42 | 100 | 0.11 | – | – | – | –
2 | Cc1c(C(=O)O)n2c3ccc(Cl)c(c13)-c1c(nn(C)c1C)CSCc1cc(n(C)n1)CSc1cc(cc3c1CCC3)OCCC2 [Example 12, 17-Chloro-5,13,14,22-tetramethyl-28-oxa-2,9-dithia-5,6,12,13,24-pentaazaheptacyclo[27.6.1.1^4,7.0^11,15.0^16,21.0^20,24.0^30,35]heptatriaconta-1(36),4(37),6,11,14,16,18,20,22,29,31(35)-undecaene-23-carboxylic acid] | 63 | 63 | 100 | 0.22 | – | – | – | –
3 | Cc1c(C(=O)O)n2c3ccc(Cl)c(c13)-c1c(nn(C)c1C)CSCc1cc(n(C)n1)CCc1cc(c3ccccc3c1)OCCC2 (single isomer, unassigned) [Example 4-1, (Ra)-17-Chloro-5,13,14,22-tetramethyl-28-oxa-9-thia-5,6,12,13,24-pentaazaheptacyclo[27.7.1.1^4,7.0^11,15.0^16,21.0^20,24.0^30,35]octatriaconta-1(37),4(38),6,11,14,16,18,20,22,29,31,33,35-tridecaene-23-carboxylic acid] | – | – | 100 | 0.15 | 37 | 39 | – | –
4 | Cc1cc2cc(c1)SCc1cc(nn1C)CN(C)Cc1nn(C)c(C)c1-c1c(Cl)ccc3c1c(C)c(C(=O)O)n3CCCO2 [Example 5, 17-Chloro-5,9,13,14,22,31-hexamethyl-28-oxa-2-thia-5,6,9,12,13,24-hexaazahexacyclo[27.3.1.1^4,7.0^11,15.0^16,21.0^20.24]tetratriaconta-1(33),4(34),6,11,14,16,18,20,22,29,31-undecaene-23-carboxylic acid] | – | – | 99 | 4.8 | – | – | – | –
5 | Cc1c(C(=O)O)n2c3ccc(Cl)c(c13)-c1c(nn(C)c1C)CSCc1cc(n(C)n1)CSc1cc3c(c(c1)OCCC2)CCCC3 (single isomer, unassigned) [Example 7-1, (Ra)-17-Chloro-5,13,14,22-tetramethyl-28-oxa-2,9-dithia-5,6,12,13,24-pentaazaheptacyclo[27.7.1.1^4,7.0^11,15.0^16,21.0^20,24.0^30,35]octatriaconta-1(37),4(38),6,11,14,16,18,20,22,29,35-undecaene-23-carboxylic acid] | 70 | 71 | 99 | 0.74 | – | – | – | –
6 | Cc1c(C(=O)O)n2c3ccc(Cl)c(c13)-c1c(nn(C)c1C)CN(C)Cc1cc(n(C)n1)CSc1cc(c3ccccc3c1)OCCC2 (single isomer, unassigned) [Example 3-2, (Sa)-17-Chloro-5,9,13,14,22-pentamethyl-28-oxa-2-thia-5,6,9,12,13,24-hexaazaheptacyclo[27.7.1.1^4,7.0^11,15.0^16,21.0^20,24.0^30,35]octatriaconta-1(37),4(38),6,11,14,16,18,20,22,29,31,33,35-tridecaene-23-carboxylic acid] | – | – | – | 14 | – | – | 99 | –
7 | Cc1c2c(nn1C)CSCc1cc(n(C)n1)CSc1cc(c3ccccc3c1)OCCCn1c(C(=O)O)cc3c-2c(Cl)ccc31 (single isomer, unassigned) [Example 1-2, (Sa)-17-Chloro-5,13-14-trimethyl-28-oxa-2,9-dithia-5,6,12,13,24-pentaazaheptacyclo[27.7.1.1^4,7.0^11,15.0^16,21.0^20,24.0^30,35]octatriaconta-1(37),4(38),6,11,14,16,18,20,22,29,31,33,35-tridecaene-23-carboxylic acid] | – | – | – | 56 | – | – | – | 100
8 | Cc1c(C(=O)O)n2c3ccc(Cl)c(c13)-c1c(nn(C)c1C)CN(C)Cc1cc(n(C)n1)CSc1cc3c(c(c1)OCCC2)CCCC3 [Example 9, 17-Chloro-5,9,13,14,22-pentamethyl-28-oxa-2-thia-5,6,9,12,13,24-hexaazaheptacyclo[27.7.1.1^4,7.0^11,15.0^16,21.0^20,24.0^30,35]octatriaconta-1(37),4(38),6,11,14,16,18,20,22,29,35-undecaene-23-carboxylic acid] | – | – | 100 | 1.5 | – | – | – | –
9 | Cc1c(C(=O)O)n2c3ccc(Cl)c(c13)-c1c(nn(C)c1C)CSCc1cc(n(C)n1)CCc1cc3c(c(c1)OCCC2)CCCC3 (single isomer, unassigned) [Example 8-1, (Ra)-17-Chloro-5,13,14,22-tetramethyl-28-oxa-9-thia-5,6,12,13,24-pentaazaheptacyclo[27.7.1.1^4,7.0^11,15.0^16,21.0^20,24.0^30,35]octatriaconta-1(37),4(38),6,11,14,16,18,20,22,29,35-undecaene-23-carboxylic acid] | 100 | 136 | 100 | 0.46 | – | – | – | –
